Assay results: the supplement of paper PMC11061612

Experiments:
Experiment in all cases: combination Emax (second highest fraction inhibited in the dose matrix, 72 h); higher = more inhibition; extreme values may be limits of the assay
[1] = system: HDQ-P1 (Breast Carcinoma)
In short: (§1)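 Bliss excess equals the observed combination effect minus the expected value EA + EB − EA·EB, where EA and EB are the effects of each agent alone. Combination Emax is the second-highest inhibition within the matrix. Inhibition was scaled from CellTiter-Glo 2.0 luminescence, with 0 set by vehicle wells and 1 by blank wells, after 72 hours of two-drug dosing of cells plated in 1536-well plates.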

[2] = system: EVSA-T (Breast Carcinoma)
In short: as §1

[3] = system: PANC-08-13 (Pancreatic Carcinoma)
In short: as §1

[4] = system: CAMA-1 (Breast Carcinoma)
In short: as §1

WIL2-NS (Non-Cancerous) = system: WIL2-NS (Non-Cancerous)
In short: as §1

[5] = system: KYSE-180 (Esophageal Squamous Cell Carcinoma)
In short: as §1

WM-115 (Melanoma) = system: WM-115 (Melanoma)
In short: as §1

[6] = system: KCL-22 (Chronic Myelogenous Leukemia)
In short: as §1

[7] = system: NCI-H1792 (Lung Adenocarcinoma)
In short: as §1

[8] = system: KM12 (Colorectal Carcinoma)
In short: as §1

[9] = system: K-562 (Chronic Myelogenous Leukemia)
In short: as §1

CHP-212 (Neuroblastoma) = system: CHP-212 (Neuroblastoma)
In short: as §1

[10] = system: P12-ICHIKAWA (T-Lymphoblastic Leukemia)
In short: as §1

[11] = system: COLO-678 (Colorectal Carcinoma)
In short: as §1

U251 (Low Grade Glioma) = system: U251 (Low Grade Glioma)
In short: as §1

[12] = system: MKN28 (Gastric Carcinoma)
In short: as §1

NCI-H2818 (Mesothelioma) = system: NCI-H2818 (Mesothelioma)
In short: as §1

[13] = system: BL-41 (Burkitt's Lymphoma)
In short: as §1

[14] = system: BFTC-905 (Bladder Carcinoma)
In short: as §1

[15] = system: DND-41 (T-Lymphoblastic Leukemia)
In short: as §1

Row | Compound | combination Emax [1] | combination Emax [2] | combination Emax [3] | combination Emax [4] | combination Emax (WIL2-NS (Non-Cancerous)) | combination Emax [5] | combination Emax (WM-115 (Melanoma)) | combination Emax [6] | combination Emax [7] | combination Emax [8] | combination Emax [9] | combination Emax (CHP-212 (Neuroblastoma)) | combination Emax [10] | combination Emax [11] | combination Emax (U251 (Low Grade Glioma)) | combination Emax [12] | combination Emax (NCI-H2818 (Mesothelioma)) | combination Emax [13] | combination Emax [14] | combination Emax [15]
1 | Cc1c2c(nn1C)CSCc1cc(n(C)n1)CSc1cc(c3ccccc3c1)OCCCc1c(C(=O)O)n(C)c3c-2c(Cl)ccc13 [AZD5991] + C[C@@H]1COCCN1C2=NC(=NC(=C2)C3(CC3)[S@](=N)(=O)C)C4=C5C=CNC5=NC=C4 [AZD6738] (first compound max 1 µM, 7x7, partner max 10 µM) | 0.387 | 1 | 0.419 | 0.751 | 0.969 | 0.979 | 0.471 | 0.997 | 0.731 | 0.746 | 0.864 | 0.939 | 1 | 0.241 | 0.648 | 0.405 | 0.496 | 1 | 0.862 | 0.9
2 | Cc1c2c(nn1C)CSCc1cc(n(C)n1)CSc1cc(c3ccccc3c1)OCCCc1c(C(=O)O)n(C)c3c-2c(Cl)ccc13 [AZD5991] + CN(C)CCCOc1ccc(-c2ccc3ncc4c(c3c2)n(C2CCOCC2)c(=O)n4C)cn1 [AZD0156] (first compound max 1 µM, 7x7, partner max 1 µM) | 0.195 | 1 | 0.211 | 0.555 | 0.388 | 0.934 | 0.244 | 0.926 | 0.345 | 0.27 | 0.172 | 0.837 | 0.994 | 0.152 | 0.607 | 0.275 | 0.355 | 1 | 0.273 | 0.158
3 | CC1(C)CCC(CN2CCN(c3ccc(C(=O)NS(=O)(=O)c4ccc(NCC5CCOCC5)c([N+](=O)[O-])c4)c(Oc4cnc5[nH]ccc5c4)c3)CC2)=C(c2ccc(Cl)cc2)C1 [Venetoclax] + COc1cc(Nc2ncc3c(n2)-c2ccc(Cl)cc2C(c2c(F)cccc2OC)=NC3)ccc1C(=O)O [Alisertib] (first compound max 1 µM, 7x7, partner max 10 µM) | 0.41 | 0.598 | 0.302 | 0.341 | 0.825 | 0.377 | 0.379 | 0.811 | 0.65 | 0.598 | 0.693 | 0.855 | 0.953 | 0.181 | 0.49 | 0.245 | 0.36 | 0.978 | 0.671 | 0.947
4 | CC1(C)CCC(CN2CCN(c3ccc(C(=O)NS(=O)(=O)c4ccc(NCC5CCOCC5)c([N+](=O)[O-])c4)c(Oc4cnc5[nH]ccc5c4)c3)CC2)=C(c2ccc(Cl)cc2)C1 [Venetoclax] + Cn1cnc2c(F)c(Nc3ccc(Br)cc3Cl)c(C(=O)NOCCO)cc21 [Selumetinib] (first compound max 1 µM, 7x7, partner max 3 µM) | 0.182 | 0.182 | 0.184 | 0.0815 | 0.87 | 0.0548 | 0.42 | 0.318 | 0.251 | 0.555 | 0.414 | 0.878 | 0.23 | 0.485 | 0.137 | 0.278 | 0.133 | 0.196 | 0.454 | 0.891
5 | Cc1nc(Nc2ncc(C(=O)Nc3c(C)cccc3Cl)s2)cc(N2CCN(CCO)CC2)n1 [Dasatinib] + CC(=O)Nc1cccc(-n2c(=O)n(C3CC3)c(=O)c3c(Nc4ccc(I)cc4F)n(C)c(=O)c(C)c32)c1 [Trametinib] (first compound max 2 µM, 7x7, partner max 1 µM) | 0.958 | 0.176 | 0.738 | 0.127 | 0.721 | 0.411 | 0.805 | 0.93 | 1 | 0.714 | 0.747 | 1 | 0.517 | 0.559 | 0.781 | 0.417 | 0.582 | 0.144 | 0.863 | 0.263
6 | C=CCn1c(=O)c2cnc(Nc3ccc(N4CCN(C)CC4)cc3)nc2n1-c1cccc(C(C)(C)O)n1 [AZD1775] + C1CN(CCC1(C(=O)N[C@@H](CCO)C2=CC=C(C=C2)Cl)N)C3=NC=NC4=C3C=CN4 [Capivasertib] (first compound max 3 µM, partner max 3 µM) | 0.856 | 0.958 | 0.544 | 0.775 | 0.953 | 0.8 | 0.536 | 0.962 | 0.808 | 0.872 | 0.895 | 0.859 | 1 | 0.51 | 0.671 | 0.609 | 0.493 | 0.993 | 0.904 | 0.899
